Reference: paper PMC5607274, “An iterative compound screening contest method for identifying target protein inhibitors using the tyrosine-protein kinase Yes” (Scientific Reports, 2017)

Biological target: T1, human recombinant Yes [a.a. 2–543 (end)] (Homo sapiens, UniProt P07947)
T1 construct: human recombinant Yes [a.a; 2–543 (end)]; purchased BPS Bioscience 40488
Assay: ADP-Glo kinase assay, inhibition rates of Yes phosphorylation activity (first and second screening)
Type: biochemical
Conditions: first screening; mean of n = 4 wells; 10 μmol L−1 compound
Summary of the method: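 ADP-Glo luminescence measured inhibition of human recombinant Yes (a.a. 2–543) phosphorylation activity. In the first screen, each compound ran in 4 wells and inhibition rates were averaged. The second screen retested hits as compounds dissolved from fresh powder.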

T1 sequence (P07947 2-543): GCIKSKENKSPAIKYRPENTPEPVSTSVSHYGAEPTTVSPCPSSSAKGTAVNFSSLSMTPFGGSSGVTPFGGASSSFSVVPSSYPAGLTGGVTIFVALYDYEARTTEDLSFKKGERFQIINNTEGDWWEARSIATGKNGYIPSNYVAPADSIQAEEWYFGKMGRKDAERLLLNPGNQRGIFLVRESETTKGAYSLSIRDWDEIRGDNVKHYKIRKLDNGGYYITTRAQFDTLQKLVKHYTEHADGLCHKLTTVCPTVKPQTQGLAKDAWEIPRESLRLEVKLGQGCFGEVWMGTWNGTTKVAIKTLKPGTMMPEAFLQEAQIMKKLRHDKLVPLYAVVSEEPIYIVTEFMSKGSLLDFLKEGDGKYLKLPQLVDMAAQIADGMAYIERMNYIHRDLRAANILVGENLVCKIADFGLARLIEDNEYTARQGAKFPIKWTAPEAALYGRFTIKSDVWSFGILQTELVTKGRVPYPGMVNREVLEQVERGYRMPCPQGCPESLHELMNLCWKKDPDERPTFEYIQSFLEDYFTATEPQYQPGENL

Structure (SMILES)	First screening IR (inhibition rate) [%]
CC(=O)c1cccc(NC(=O)c2sc(Nc3ccc(C)cc3)c(C(=O)NCCN3CCOCC3)c2N)c1 [Compound Z56914008]	-3
Cc1sc2ncnc(SCC(=O)Nc3ncc(Cl)c(C)c3Cl)c2c1C [Compound Z20229401]	-1
Cc1ccc(NC(=O)C(C)Sc2ncnc3sc4c(c23)CCC4)cc1 (centres unmarked) [Compound Z20227630]	-9
CSCCC(NC(=O)c1ccco1)C(=O)NCc1ccc(CN(C)C)cc1 (centres unmarked) [Compound Z102556578]	-3
CCC(C)(C)C1C/C(=C/c2ccccc2Br)c2nc3ccccc3c(C(=O)O)c2C1 (centres unmarked) [Compound Z46116650]	23
CC(C)c1nc2n(n1)CC(NCc1cc(-c3cccs3)on1)CC2 (centres unmarked) [Compound Z1139411735]	-5
Cl.Fc1ccc(-c2cc(-c3ccccc3)c3ccccc3n2)cc1 [Compound Z48951014]	18
NS(=O)(=O)c1cccc(S(=O)(=O)N2CCCCC2)c1 [Compound Z237744790]	-8
O=C(Oc1cccnc1Br)c1nn(-c2ccccc2)c(=O)c2ccccc12 [Compound Z817738176]	23
CCn1ncc2c(C(=O)Nc3ncc(C)s3)cc(-c3ccccc3)nc21 [Compound Z224316064]	10
Cl.Fc1ccc(-c2nc3ccc(Cl)cc3c(-c3ccccc3)c2CCCl)cc1 [Compound Z48950878]	10
CC(NCc1ccc(CN2CCN(C)CC2)cc1)c1cccc(CO)c1 (centres unmarked) [Compound Z1532484795]	-4
CCOc1cc(/C=C2/CCCc3c2nc2ccccc2c3C(=O)O)ccc1OC [Compound Z46035916]	51
Oc1ccc(F)cc1C1=NNC(c2cc(Br)cc3c2OCOC3)C1 (centres unmarked) [Compound Z57604399]	-12
CCc1ccc(CNc2cccc(NC(=O)OCCOC)c2)o1 [Compound Z1420504830]	-7
Cc1nn(CCC#N)c2nc(-c3ccc(Br)cc3)cc(C(F)(F)F)c12 [Compound Z55874673]	-4
OCCNc1nc2ccccc2n1-c1ncnc2sc3c(c12)CCCC3 [Compound Z57981090]	7
COc1ccc(/C(O)=C2\C(=O)C(=O)N(CCCn3ccnc3)C2c2ccc(OC(C)C)cc2)cc1 (centres unmarked) [Compound Z316169960]	12
CC(Oc1ccc(N(C)C(N)=O)cc1)c1nnc(-c2cccc(Cl)c2)o1 (centres unmarked) [Compound Z1329202056]	-16
Cc1c(-c2ccccc2)nc2ccc(Cl)cc2c1-c1ccccc1Cl.Cl [Compound Z48951725]	-2
CN(C)c1ccc(C(CNc2ncccc2C#N)c2c[nH]c3ccccc23)cc1 (centres unmarked) [Compound Z31123519]	0

Structure (SMILES)	First screening IR (inhibition rate) [%]
Cc1ccc2nc3c(c(C(=O)O)c2c1)CCC/C3=C/c1cnn(C(C)C)c1 [Compound Z1184925017]	-1
Cc1ccccc1-c1nc(SCc2cn3cc(Cl)ccc3n2)n[nH]1 [Compound Z221422064]	36
COc1ccccc1NC(=O)c1ccc(NC(=O)COc2ccc(-c3nc(C)cs3)cc2)cc1 [Compound Z99004386]	5
CC(C)n1ncc2c(C(=O)Nc3ccccc3F)cc(-c3ccco3)nc21 [Compound Z216407296]	37
CN(C)c1ccc(-c2cncc(C(=O)NCC3CC=CCC3)c2)cc1 (centres unmarked) [Compound Z1418841673]	21
O=S1(=O)CC=C(S(=O)(=O)N2CCCC2)C1 [Compound Z1342206502]	6
CCOC(=O)c1c(-c2ccc(OC)c(OC)c2)csc1NC(=O)CN1CCN(C(=O)c2ccccc2)CC1 [Compound Z46404770]	2
CC(OC(=O)c1ccc(-c2ccc(O)cc2)cc1)C(=O)c1ccc(F)c(F)c1 (centres unmarked) [Compound Z54379277]	27
Nc1nccnc1C(=O)Nc1ncc(Cc2cc(F)cc(F)c2)s1 [Compound Z281652038]	-1
COc1ccc(OC)c(C2CCCN2C(=O)CSc2nnc(Nc3ccccc3C)s2)c1 (centres unmarked) [Compound Z96342510]	9
COc1ccc(-c2cc(C(=O)OCc3ccccn3)c3ccccc3n2)cc1OC [Compound Z30610492]	-9
Cc1c(C(=O)N(C2CCC(C)CC2)C2CC2)cnn1-c1ccc(=O)[nH]n1 (centres unmarked) [Compound Z908597782]	-8
CC(=O)c1cccc(NC(=O)c2cc(-c3ccco3)nc3c2cnn3C(C)C)c1 [Compound Z216416610]	-1
O=S1(=O)CC=C(S(=O)(=O)Cl)C1 [Compound Z57163400]	4
c1ccc(-c2nc(NCc3ccc(-n4cncn4)cc3)no2)cc1 [Compound Z1722673239]	-10
COc1cccc(-c2cc(-c3ccccc3)c3cc(Br)ccc3n2)c1 [Compound Z1409331244]	-16
CCc1ccccc1Nc1nc(N)nc(CSCC(=O)c2cc(C)n(C)c2C)n1 [Compound Z45360560]	-2
COc1ccc(CN2CCC(CNC(=O)c3ccccc3SCc3c(C)noc3C)CC2)cc1 [Compound Z914096084]	-7
O=C(/C=C/c1cccnc1)c1ccc(N2CCOC2=O)cc1 [Compound Z970272914]	16
COc1ccc(C)cc1N1CC(C(=O)Nc2ccc3c(ccn3CCN3CCOCC3)c2)CC1=O (centres unmarked) [Compound Z961849222]	23
COc1cc(/C=C/C(=O)c2ccc3c(c2)NC(=O)CO3)ccc1O [Compound Z114950222]	1

Structure (SMILES)	First screening IR (inhibition rate) [%]
O=C(c1cccnc1N1CCCC1)N1CCN(C(=O)C2COc3ccccc3O2)CC1 (centres unmarked) [Compound Z88468962]	-8
COc1c(CNCc2ccc(C(=O)N(C)C)cc2)c(C)nn1C [Compound Z991036884]	27
Cc1ccc(S(=O)(=O)N(C)C2(C)CCS(=O)(=O)C2)cc1C (centres unmarked) [Compound Z150918412]	9
NC(=O)N1CCC(C(=O)N2CCCC2CC2CC3CCC2C3)CC1 (centres unmarked) [Compound Z1038829842]	2
CN(C1(C)CCS(=O)(=O)C1)S(=O)(=O)c1ccc(Cl)c(Cl)c1 (centres unmarked) [Compound Z131022412]	2
CS(=O)(=O)c1ccccc1S(=O)(=O)N1CCCC1 [Compound Z285664942]	-3
O=C(NCc1ccc(-c2nc3ccccc3s2)o1)c1ccco1 [Compound Z218238558]	12
CCOC(=O)c1c(-c2ccc(OC)cc2)csc1NC(=O)CN1CCN(c2cccc(OC)c2)CC1 [Compound Z46356995]	9
COc1ccc(C(=O)Nc2n[nH]c(-c3ccc(F)cc3)n2)cc1 [Compound Z108548640]	6
CCC(C)NC(=O)c1ccc2c(=O)n(CC(C)C)c3nnc(SCC(=O)Nc4ccccc4C)n3c2c1 (centres unmarked) [Compound Z1157725045]	-8
COc1cc(C(=O)OC(C)C(=O)NC(C)(C#N)C(C)C)ccc1Oc1ccc(Cl)cc1[N+](=O)[O-] (centres unmarked) [Compound Z18025700]	1
Cc1nccn1Cc1ccc(NC(=O)c2ncccc2O)cc1 [Compound Z1746485864]	55
Cc1nn(-c2ccccc2)c2nc(-c3ccccc3)cc(C(F)(F)F)c12 [Compound Z55426459]	-6
Cc1ccc(S(=O)(=O)N(C)c2ccc(OCC(=O)Nc3ccc4oc(C)nc4c3)cc2)cc1 [Compound Z70909087]	17
CN1CCCN(c2nc(C(F)(F)F)nc3c2cnn3Cc2ccccc2)CC1 [Compound Z359311942]	-23
COc1ccc(-n2nnc3c4c(c(Nc5ccc(C)cc5)cc32)C(=O)c2ccccc2C4=O)cc1 [Compound Z56857970]	7
CC(C)(C)n1cc(C(=O)NCc2ccc(-c3cccnc3)cc2)cn1 [Compound Z1276379731]	5
Cc1ccc(S(=O)(=O)CCCS(=O)(=O)N(C)C)c(C)c1 [Compound Z1134191614]	-1
CN1CCN(C(=O)c2ccc(-c3cc(F)c(F)c(F)c3)cc2)C(CN)C1.Cl (centres unmarked) [Compound Z1457890473]	13
O=C(NCc1ccccn1)c1cc(-c2cccnc2)nc2c1cnn2Cc1ccco1 [Compound Z242175442]	22
Cc1nn(Cc2ccc(F)cc2)c2sc(C(=O)Nc3ccc(N4CCOCC4)cc3N3CCOCC3)cc12 [Compound Z28027525]	3

Same assay, conditions: second screening, dissolved from fresh powder; n = 4; 10 μmol L−1 compound

Structure (SMILES)	Second screening IR (inhibition rate) [%]
CCOc1cc(/C=C2/CCCc3c2nc2ccccc2c3C(=O)O)ccc1OC [Compound Z46035916]	-8
COc1c(CNCc2ccc(C(=O)N(C)C)cc2)c(C)nn1C [Compound Z991036884]	-29
